Here are results for nine compounds from patent US20260317324A1, “BIFUNCTIONAL COMPOUNDS FOR DEGRADING BRAF VIA UBIQUITIN PROTEOSOME PATHWAY” (Nurix Therapeutics, Inc., priority 2023, published 2026).

Format in all cases: cell-based
Assay [1] concerns the target T1, BRAF V600E (Homo sapiens, UniProt P15056, V600E).
T1 construct: endogenous C-terminal HiBiT fusion tag on BRAF V600E allele; endogenous in cells; host or cells: A375 clone 1F10 (CRISPR-Cas9 knock-in of the HiBiT tag; parental A375 from ATCC)
Description: BRAF HiBiT degradation assay, C-terminal HiBiT-tagged BRAF V600E A375 cells (clone 1F10), Nano-Glo HiBiT Lytic assay. As to conditions: for Dmax: A-375. The method, boiled down:
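Luminescence from the Nano-Glo HiBiT lytic read-out gave % BRAF V600E remaining versus DMSO-treated tagged cells, with untagged A375 as background. Clone 1F10 cells (10,000/well, 24 h pre-culture) received compound at 1 μM–0.01 nM in half-log steps, 0.2% DMSO; curve fits gave DC50 at Y=50, plus observed Dmax.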

For assay [2], the target named is T2, BRAF G466V (Homo sapiens, UniProt P15056, G466V).
T2 construct: Horizon Discovery (HCT-116 BRAF−/− cells); host or cells: HCT-116 BRAF−/− cells, clone 8, lentiviral transduction
The assay can be described thus: BRAF HiBiT degradation assay, C-terminal HiBiT-tagged BRAF G466V overexpressed in HCT-116 BRAF−/− cells (clone 8), Nano-Glo HiBiT Lytic assay. The procedure, abridged:
(§1)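 Degradation was read by Nano-Glo HiBiT lytic luminescence, normalised to DMSO-treated tagged cells with wildtype HCT-116 as background. Test cells were lentiviral clones of HCT-116 BRAF−/− carrying HiBiT-tagged mutants in RPMI/10% FBS, given compound at 0.01 nM–1 μM in duplicate. Outputs are the curve-fitted concentration giving 50% degradation and the maximal observed degradation.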
For orientation: HiBiT is a short tag that completes a luciferase, so light tracks the accessible tagged protein.

In assay [3] the target is T3, BRAF G469A (Homo sapiens, UniProt P15056, G469A).
T3 construct: Horizon Discovery (HCT-116 BRAF−/− cells); host or cells: HCT-116 BRAF−/− cells, clone 34, lentiviral transduction
The assay can be described thus: BRAF HiBiT degradation assay, C-terminal HiBiT-tagged BRAF G469A overexpressed in HCT-116 BRAF−/− cells (clone 34), Nano-Glo HiBiT Lytic assay. The procedure, abridged:
as §1

In assay [4] the target is T4, BRAF D594G (Homo sapiens, UniProt P15056, D594G).
T4 construct: Horizon Discovery (HCT-116 BRAF−/− cells); host or cells: HCT-116 BRAF−/− cells, clone 63, lentiviral transduction
Description: BRAF HiBiT degradation assay, C-terminal HiBiT-tagged BRAF D594G overexpressed in HCT-116 BRAF−/− cells (clone 63), Nano-Glo HiBiT Lytic assay. The method, boiled down: as §1

Where [5] appears, read: A375 (BRAF V600E), DC50 at 50%: fitted conc. at Y=50.
[6] abbreviates: A375 (BRAF V600E), percentage protein degraded at maximal compound effect relative to DMSO.
Where [7] appears, read: BRAF G466V, DC50 at 50%: fitted conc. at Y=50.
Setting [8] is: HCT-116, BRAF G466V, percentage protein degraded at maximal compound effect relative to DMSO.
[9] abbreviates: Class 2, BRAF G469A, DC50 at 50%: fitted conc. at Y=50.
Setting [10] is: HCT-116, Class 2, BRAF G469A, percentage protein degraded at maximal compound effect relative to DMSO.
The mark [11] stands for this setting: BRAF D594G, DC50 at 50%: fitted conc. at Y=50.
[12] abbreviates: HCT-116, BRAF D594G, percentage protein degraded at maximal compound effect relative to DMSO.
[13] abbreviates: A375 (BRAF V600E, Class 1), DC50 at 50% degradation.
Setting [14] is: A375 (BRAF V600E, Class 1), observed Dmax, % protein degraded relative to DMSO control.
Setting [15] is: BRAF G466V (Class 3), HCT-116 BRAF−/− cells, DC50 at 50% degradation.
Where [16] appears, read: BRAF G466V (Class 3), HCT-116 BRAF−/− cells, observed Dmax relative to DMSO control.
Setting [17] is: BRAF G469A (Class 2), HCT-116 BRAF−/− cells, DC50 at 50% degradation.
[18] abbreviates: BRAF G469A (Class 2), HCT-116 BRAF−/− cells, observed Dmax relative to DMSO control.
[19] abbreviates: BRAF D594G (Class 3), HCT-116 BRAF−/− cells, DC50 at 50% degradation.
Setting [20] is: BRAF D594G (Class 3), HCT-116 BRAF−/− cells, observed Dmax relative to DMSO control.

T2 sequence (P15056 whole entry G466V): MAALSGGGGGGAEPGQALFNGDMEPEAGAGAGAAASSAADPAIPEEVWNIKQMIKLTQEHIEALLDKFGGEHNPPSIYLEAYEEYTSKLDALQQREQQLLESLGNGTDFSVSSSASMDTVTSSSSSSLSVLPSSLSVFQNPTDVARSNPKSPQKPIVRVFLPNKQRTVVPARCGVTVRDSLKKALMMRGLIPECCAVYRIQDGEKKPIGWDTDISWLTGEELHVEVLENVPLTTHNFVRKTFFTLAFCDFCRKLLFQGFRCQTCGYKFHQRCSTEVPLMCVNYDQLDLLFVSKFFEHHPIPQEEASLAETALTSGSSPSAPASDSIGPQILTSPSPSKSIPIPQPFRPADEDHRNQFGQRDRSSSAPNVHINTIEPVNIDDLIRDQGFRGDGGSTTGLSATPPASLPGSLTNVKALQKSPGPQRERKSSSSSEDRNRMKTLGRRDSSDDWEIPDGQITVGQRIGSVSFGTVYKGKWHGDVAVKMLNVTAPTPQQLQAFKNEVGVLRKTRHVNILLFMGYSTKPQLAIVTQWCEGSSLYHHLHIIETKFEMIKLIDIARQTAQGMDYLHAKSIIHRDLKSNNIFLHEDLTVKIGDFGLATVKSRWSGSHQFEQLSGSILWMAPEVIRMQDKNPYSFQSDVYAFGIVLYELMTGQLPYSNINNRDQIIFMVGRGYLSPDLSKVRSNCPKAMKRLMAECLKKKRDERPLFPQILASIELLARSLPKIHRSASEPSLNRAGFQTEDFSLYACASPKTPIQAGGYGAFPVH
T1 sequence (P15056 whole entry V600E, the tested form may be a part): as the sequence (P15056 whole entry G466V) above, with V466G, V600E counted along it
T4 sequence (P15056 whole entry D594G): as the sequence (P15056 whole entry G466V) above, with V466G, D594G counted along it
T3 sequence (P15056 whole entry G469A): as the sequence (P15056 whole entry G466V) above, with V466G, G469A counted along it

For `CCCS(=O)(=O)Nc1cccc(-c2cn(-c3ccc(N4CCN(CC5CCN(c6ccc(C7CCC(=O)NC7=O)cc6F)CC5)CC4)cc3)nc2-c2ccncc2)c1F` (racemic) [Compound 18, Rac-N-{3-[1-(4-{4-[(1-{4-[(3R)-2,6-dioxopiperidin-3-yl]-2-fluorophenyl}piperidin-4-yl)methyl]piperazin-1-yl}phenyl)-3-(pyridin-4-yl)-1H-pyrazol-4-yl]-2-fluorophenyl}propane-1-sulfonamide], the DC50 (commonly the concentration at which degradation of the target reaches its halfway point) in assay [1] (setting [5]) is 10 to 50 nM; in assay [2] (setting [7]), 10 to 50 nM; in assay [3] (setting [9]), over 500 nM; in assay [4] (setting [11]), 10 to 50 nM. Also, the Dmax – broadly, the greatest extent of degradation seen – in assay [1] (setting [6]) was over 70%; in assay [2] (setting [8]), 30 to 70%; in assay [3] (setting [10]) it was 30 to 70%; in assay [4] (setting [12]), 30 to 70%.

In the case of `CCCS(=O)(=O)Nc1cccc(-c2nc(C(C)(C)C)sc2-c2ccnc(Nc3ccc4c(c3)CCN(C(=O)CN3CCC(c5ccc(NC6CCC(=O)NC6=O)cc5)CC3)C4)n2)c1F` (racemic) [Compound 123, Rac-N-[3-(2-tert-butyl-5-{2-[(2-{2-[4-(4-{[(3R)-2,6-dioxopiperidin-3-yl]amino}phenyl)piperidin-1-yl]acetyl}-1,2,3,4-tetrahydroisoquinolin-6-yl)amino]pyrimidin-4-yl}-1,3-thiazol-4-yl)-2-fluorophenyl]propane-1-sulfonamide], the DC50 is 10 to 50 nM in assay [1] (setting [5]), over 500 nM in assay [2] (setting [7]), over 500 nM in assay [3] (setting [9]) and over 500 nM in assay [4] (setting [11]). For the same compound, the maximal degradation (Dmax) was 30 to 70% in assay [1] (setting [6]), under 30% in assay [2] (setting [8]), under 30% in assay [3] (setting [10]) and under 30% in assay [4] (setting [12]).

For `O=C1CC[C@H](c2ccc(N3CCC(CN4CCN(c5ccc(-n6cc(-c7cc(Cl)cc(NS(=O)(=O)N8CC[C@@H](F)C8)c7F)c(-c7ccncc7)n6)nc5)CC4)CC3)nc2)C(=O)N1` [Compound 297, (3R)—N-{5-chloro-3-[1-(5-{4-[(1-{5-[(3R)-2,6-dioxopiperidin-3-yl]pyridin-2-yl}piperidin-4-yl)methyl]piperazin-1-yl}pyridin-2-yl)-3-(pyridin-4-yl)-1H-pyrazol-4-yl]-2-fluorophenyl}-3-fluoropyrrolidine-1-sulfonamide], the DC50 in assay [1] (setting [13]), in assay [2] (setting [15]), in assay [3] (setting [17]) and in assay [4] (setting [19]) was under 10 nM each time. For the same compound, the maximal degradation (Dmax) in assay [1] (setting [14]), in assay [2] (setting [16]), in assay [3] (setting [18]) and in assay [4] (setting [20]) was over 70% each time.

In the case of `CCCS(=O)(=O)Nc1cccc(-c2cn(-c3ccc(C4CCN(CC5CCN(c6ccc(C7CCC(=O)NC7=O)cc6F)CC5)CC4)cc3)nc2-c2ccncc2)c1F` (racemic) [Compound 22, Rac-N-{3-[1-(4-{1-[(1-{4-[(3R)-2,6-dioxopiperidin-3-yl]-2-fluorophenyl}piperidin-4-yl)methyl]piperidin-4-yl}phenyl)-3-(pyridin-4-yl)-1H-pyrazol-4-yl]-2-fluorophenyl}propane-1-sulfonamide], the DC50 in assay [1] (setting [5]) was 10 to 50 nM; in assay [2] (setting [7]), 50 to 500 nM; in assay [3] (setting [9]) it was over 500 nM; in assay [4] (setting [11]), over 500 nM. Besides, the Dmax in assay [1] (setting [6]) is over 70%; in assay [2] (setting [8]), 30 to 70%; in assay [3] (setting [10]), under 30%; in assay [4] (setting [12]), 30 to 70%.

As to `C[C@@H]1CN(c2ccc(-n3cc(-c4cc(Cl)cc(NS(=O)(=O)N5CC[C@@H](F)C5)c4F)c(-c4ccncc4)n3)nc2)CCN1CC1CCN(c2ccc(N3CCC(=O)NC3=O)cc2)CC1` [Compound 322, (3R)—N-[5-chloro-3-(1-{5-[(3R)-4-({1-[4-(2,4-dioxo-1,3-diazinan-1-yl)phenyl]piperidin-4-yl}methyl)-3-methylpiperazin-1-yl]pyridin-2-yl}-3-(pyridin-4-yl)-1H-pyrazol-4-yl)-2-fluorophenyl]-3-fluoropyrrolidine-1-sulfonamide], the DC50 in assay [1] (setting [13]) is under 10 nM; in assay [2] (setting [15]), under 10 nM; in assay [3] (setting [17]) it was 50 to 500 nM; in assay [4] (setting [19]), under 10 nM. Also, the Dmax in assay [1] (setting [14]) was over 70%; in assay [2] (setting [16]) it was 30 to 70%; in assay [3] (setting [18]), 30 to 70%; in assay [4] (setting [20]) it was 30 to 70%.

Turning to `CCN(C)S(=O)(=O)Nc1cc(F)cc(-c2cn(-c3ccc(N4CCN(CC5CCN(c6ccc(C7CCC(=O)NC7=O)cn6)CC5)CC4)cc3)nc2-c2ccncc2)c1F` (racemic) [Compound 376, Rac-(3R)-3-(6-{4-[(4-{4-[4-(3-{[ethyl(methyl)sulfamoyl]amino}-2,5-difluorophenyl)-3-(pyridin-4-yl)-1H-pyrazol-1-yl]phenyl}piperazin-1-yl)methyl]piperidin-1-yl}pyridin-3-yl)piperidine-2,6-dione], the DC50 in assay [1] (setting [13]) was under 10 nM; in assay [2] (setting [15]), under 10 nM; in assay [3] (setting [17]), 10 to 50 nM; in assay [4] (setting [19]), under 10 nM. Besides, the Dmax in assay [1] (setting [14]) was over 70%; in assay [2] (setting [16]) it was over 70%; in assay [3] (setting [18]), 30 to 70%; in assay [4] (setting [20]), over 70%.

As to `CCCS(=O)(=O)Nc1cc(Cl)cc(-c2cn(-c3ccc(N4CCN(CC5CCN(c6ccc([C@H]7CCC(=O)NC7=O)cc6)CC5)[C@@H](C)C4)cc3)nc2-c2ccncc2)c1F` [Compound 278, N-[5-chloro-3-(1-{4-[(3S)-4-[(1-{4-[(3R)-2,6-dioxopiperidin-3-yl]phenyl}piperidin-4-yl)methyl]-3-methylpiperazin-1-yl]phenyl}-3-(pyridin-4-yl)-1H-pyrazol-4-yl)-2-fluorophenyl]propane-1-sulfonamide], the DC50 is under 10 nM in assay [1] (setting [13]), under 10 nM in assay [2] (setting [15]), over 500 nM in assay [3] (setting [17]) and 50 to 500 nM in assay [4] (setting [19]). For the same compound, the greatest degradation seen (Dmax) in assay [1] (setting [14]) was over 70%; in assay [2] (setting [16]), over 70%; in assay [3] (setting [18]), 30 to 70%; in assay [4] (setting [20]) it was 30 to 70%.

Consider `CCCS(=O)(=O)Nc1cccc(-c2nc(C3CCC4(CC3)CCN(CC3CCN(c5ccc(C6CCC(=O)NC6=O)cn5)CC3)CC4)sc2-c2ccnc(N)n2)c1F` (racemic) [Compound 260, Rac-N-{3-[5-(2-aminopyrimidin-4-yl)-2-{3-[(1-{5-[(3R)-2,6-dioxopiperidin-3-yl]pyridin-2-yl}piperidin-4-yl)methyl]-3-azaspiro[5.5]undecan-9-yl}-1,3-thiazol-4-yl]-2-fluorophenyl}propane-1-sulfonamide], for which the DC50 in assay [1] (setting [13]) is 10 to 50 nM; in assay [2] (setting [15]), over 500 nM; in assay [3] (setting [17]), over 500 nM; in assay [4] (setting [19]), over 500 nM. Also, the greatest degradation seen (Dmax) in assay [1] (setting [14]) was 30 to 70%; in assay [2] (setting [16]), under 30%; in assay [3] (setting [18]) it was under 30%; in assay [4] (setting [20]) it was under 30%.

Take `CCN(C)S(=O)(=O)Nc1cccc(-c2nc(C3CCN(C(=O)C4CCN(C(=O)C5CCN(c6ccc(C7CCC(=O)NC7=O)cn6)CC5)CC4)CC3)sc2-c2ccnc(N)n2)c1F` (racemic) [Compound 209, Rac-(3S)-3-{6-[4-(4-{4-[5-(2-aminopyrimidin-4-yl)-4-(3-{[ethyl(methyl)sulfamoyl]amino}-2-fluorophenyl)-1,3-thiazol-2-yl]piperidine-1-carbonyl}piperidine-1-carbonyl)piperidin-1-yl]pyridin-3-yl}piperidine-2,6-dione]: the DC50 was under 10 nM in assay [1] (setting [5]), under 10 nM in assay [2] (setting [7]), 10 to 50 nM in assay [3] (setting [9]) and under 10 nM in assay [4] (setting [11]). For the same compound, the Dmax was over 70% in assay [1] (setting [6]), over 70% in assay [2] (setting [8]), 30 to 70% in assay [3] (setting [10]) and over 70% in assay [4] (setting [12]).
